Where two headings read alike, the source gives them in different places.
Experiments:
Type in all cases: in vivo
Puccinia triticina = assay: Fungicidal activity: wheat brown rust (PUCCRT), disease control on wheat seedlings; settings: LV activity at 121.5 g/H, wheat (variety Yuma)
Procedure: (§1) Technical grades of materials were dissolved in acetone, which were then mixed with nine volumes of water (H2O) containing 110 ppm Triton X-100. The fungicide solutions were applied onto wheat seedlings using an automated booth sprayer to run-off. All sprayed plants were allowed to air dry prior to further handling. All fungicides were evaluated using the aforementioned method for their activity vs. all target diseases, unless stated otherwise. Wheat leaf blotch and brown rust activity were also evaluated using track spray applications, in which case the fungicides were formulated as EC formulations, containing 0.1% Trycol 5941 in the spray solutions. Wheat plants (variety Yuma) were grown from seed in a greenhouse in 50% mineral soil/50% soil-less Metro mix until the first leaf was fully emerged, with 7-10 seedlings per pot. These plants were inoculated with an aqueous spore suspension of Zymoseptoria tritici either prior to or after fungicide treatments. After inoculation the plants were kept in 100% relative humidity (one day in a dark dew chamber followed by two to three days in a lighted dew chamber at 20° C.) to permit spores to germinate and infect the leaf. The plants were then transferred to a greenhouse set at 20° C. for disease to develop. When disease symptoms were fully expressed on the 1st leaves of untreated plants, infection levels were assessed on a scale of 0 to 100 percent disease severity. Percent disease control was calculated using the ratio of disease severity on treated plants relative to untreated plants. Wheat plants (variety Yuma) were grown from seed in a greenhouse in 50% mineral soil/50% soil-less Metro mix until the first leaf was fully emerged, with 7-10 seedlings per pot. These plants were inoculated with an aqueous spore suspension of Puccinia triticina either prior to or after fungicide treatments. After inoculation the plants were kept in a dark dew room at 22° C. with 100% relative humidity overnight to permit spores to germinate and infect the leaf. The plants were then transferred to a greenhouse set at 24° C. for disease to develop. Fungicide formulation, application and disease assessment followed the procedures as described in the Example A. Results of the evaluations are shown below in Table 4.

Zymoseptoria tritici = assay: Fungicidal activity: leaf blotch of wheat (SEPTTR), disease control on wheat seedlings; settings: LV activity at 121.5 g/H, wheat (variety Yuma)
Procedure: as §1, with “plants.” for “plants. Wheat plants (variety Yuma) were grown from seed in a greenhouse in 50% mineral soil/50% soil-less Metro mix until the first leaf was fully emerged, with 7-10 seedlings per pot. These plants were inoculated with an aqueous spore suspension of Puccinia triticina either prior to or after fungicide treatments. After inoculation the plants were kept in a dark dew room at 22° C. with 100% relative humidity overnight to permit spores to germinate and infect the leaf. The plants were then transferred to a greenhouse set at 24° C. for disease to develop. Fungicide formulation, application and disease assessment followed the procedures as described in the Example A. Results of the evaluations are shown below in Table 4.”

Phakopsora pachyrhizi = assay: Fungicidal activity: Asian soybean rust (PHAKPA), disease control on soybean seedlings; settings: soybean (variety Williams 82)
Procedure: Technical grades of materials were dissolved in acetone, which were then mixed with nine volumes of H2O containing 0.011% Tween 20. The fungicide solutions were applied onto soybean seedlings using an automated booth sprayer to run-off. All sprayed plants were allowed to air dry prior to further handling. Soybean plants (variety Williams 82) were grown in soil-less Metro mix, with one plant per pot. Two week old seedlings were used for testing. Plants were inoculated either 3 days prior to or 1 day after fungicide treatments. Plants were incubated for 24 h in a dark dew room at 22° C. and 100% relative humidity then transferred to a growth room at 23° C. for disease to develop. Disease severity was assessed on the sprayed leaves.

[1] = 24 h, 1 Day Protectant, read-out: PUCCRT 1DP disease control rating
[2] = 72 h, 3 Day Curative, read-out: PUCCRT 3DC disease control rating
[3] = 24 h, 1 Day Protectant, read-out: SEPTTR 1DP disease control rating
[4] = 72 h, 3 Day Curative, read-out: SEPTTR 3DC disease control rating
[5] = 24 h, 1 Day Protectant, read-out: PHAKPA 1DP disease control rating
[6] = 72 h, 3 Day Curative, read-out: PHAKPA 3DC disease control rating

Structure (SMILES) | pest or weed control at 121.5 g/ha (Puccinia triticina; [1]) [%] | pest or weed control at 121.5 g/ha (Puccinia triticina; [2]) [%] | pest or weed control at 121.5 g/ha (Zymoseptoria tritici; [3]) [%] | pest or weed control at 121.5 g/ha (Zymoseptoria tritici; [4]) [%] | pest or weed control at 25 ppm (Phakopsora pachyrhizi; [5]) [%] | pest or weed control at 25 ppm (Phakopsora pachyrhizi; [6]) [%]
COc1ccc(C(c2ccc(OC)cc2)[C@H](C)OC(=O)[C@H](C)n2c(=O)oc3c(OC)ccnc3c2=O)cc1 [Compound 18] | > 80 | ≤ 80 | > 80 | > 80 | ≤ 80 | ≤ 80
COc1ccnc2c(=O)n([C@@H](C)C(=O)O[C@@H](C)[C@@H](c3ccc(F)cc3)c3ccc(F)cc3C)c(=O)oc12 [Compound 19] | > 80 | ≤ 80 | > 80 | > 80 | > 80 | ≤ 80
COc1ccnc2c(=O)n([C@@H](C)C(=O)O[C@@H](C)C(c3cccc(F)c3)c3cccc(F)c3)c(=O)oc12 [Compound 14] | ≤ 80 | ≤ 80 | > 80 | > 80 | – | –
CCC[C@@H](Oc1ccc(C)cc1)[C@H](C)OC(=O)[C@H](C)n1c(=O)oc2c(OC)ccnc2c1=O [Compound 31] | > 80 | ≤ 80 | – | ≤ 80 | ≤ 80 | ≤ 80
CCCCC[C@H](OC(=O)[C@H](C)n1c(=O)oc2c(OC)ccnc2c1=O)[C@@H](C)Oc1ccccc1 [Compound 13] | – | – | ≤ 80 | ≤ 80 | – | ≤ 80
COc1ccnc2c(=O)n([C@@H](C)C(=O)O[C@@H](C)[C@H](c3ccc(F)cc3)c3ccc(F)cc3C)c(=O)oc12 [Compound 11] | ≤ 80 | – | > 80 | > 80 | – | –
CCC[C@@H](Oc1cccc(OC)c1)[C@H](C)OC(=O)[C@H](C)n1c(=O)oc2c(OC)ccnc2c1=O [Compound 10] | > 80 | > 80 | – | > 80 | – | –
CCC[C@H](OC(=O)[C@H](C)n1c(=O)oc2c(OC)ccnc2c1=O)[C@@H](C)Oc1ccccc1 [Compound 35] | – | – | – | ≤ 80 | – | ≤ 80
COc1cc(F)ccc1[C@@H](c1ccc(F)cc1)[C@H](C)OC(=O)[C@H](C)n1c(=O)oc2c(OC)ccnc2c1=O [Compound 20] | > 80 | ≤ 80 | > 80 | > 80 | – | –
COc1ccnc2c(=O)n([C@@H](C)C(=O)O[C@H](C(C)C)[C@H](C)Oc3ccc(C)cc3)c(=O)oc12 [Compound 30] | > 80 | ≤ 80 | ≤ 80 | ≤ 80 | ≤ 80 | –
COc1ccnc2c(=O)n([C@@H](C)C(=O)O[C@@H](C)[C@H](c3ccccc3)c3ccc(C)cc3F)c(=O)oc12 [Compound 17] | > 80 | – | > 80 | > 80 | – | –
COc1cc(F)ccc1[C@@H](c1ccc(F)c(C)c1)[C@H](C)OC(=O)[C@H](C)n1c(=O)oc2c(OC)ccnc2c1=O [Compound 7] | > 80 | – | > 80 | > 80 | – | –
COc1ccnc2c(=O)n([C@@H](C)C(=O)O[C@@H](C)[C@@H](c3ccccc3)c3ccc(C(F)(F)F)cc3)c(=O)oc12 [Compound 28] | ≤ 80 | ≤ 80 | > 80 | > 80 | – | ≤ 80
COc1ccc(O[C@@H](C)[C@H](OC(=O)[C@H](C)n2c(=O)oc3c(OC)ccnc3c2=O)C(C)C)cc1 [Compound 23] | > 80 | > 80 | ≤ 80 | > 80 | > 80 | ≤ 80
COc1ccnc2c(=O)n([C@@H](C)C(=O)O[C@@H](C)[C@@H](c3ccccc3)c3ccc(F)c(C)c3)c(=O)oc12 [Compound 22] | > 80 | ≤ 80 | > 80 | > 80 | ≤ 80 | ≤ 80
CC[C@H](OC(=O)[C@H](C)n1c(=O)oc2c(OC)ccnc2c1=O)[C@@H](C)Oc1ccccc1 [Compound 6] | – | ≤ 80 | – | ≤ 80 | – | –
CCC(CC)[C@@H](Oc1ccc(Cl)cc1)[C@H](C)OC(=O)[C@H](C)n1c(=O)oc2c(OC)ccnc2c1=O [Compound 5] | > 80 | ≤ 80 | > 80 | ≤ 80 | – | –
COc1ccnc2c(=O)n([C@H](C)C(=O)O[C@H](C)C(c3ccc(F)cc3)c3ccc(F)cc3)c(=O)oc12 [Compound 34] | – | – | – | – | ≤ 80 | ≤ 80
COc1ccnc2c(=O)n([C@@H](C)C(=O)O[C@@H](C)C(c3ccc(F)cc3F)c3ccc(F)cc3F)c(=O)oc12 [Compound 2] | > 80 | ≤ 80 | > 80 | > 80 | – | –
COc1ccnc2c(=O)n([C@@H](C)C(=O)O[C@H](C)C(c3ccc(F)cc3)c3ccc(F)cc3)c(=O)oc12 [Compound 29] | – | – | – | ≤ 80 | – | ≤ 80
CCC(CC)[C@@H](Oc1cccc(Cl)c1)[C@H](C)OC(=O)[C@H](C)n1c(=O)oc2c(OC)ccnc2c1=O [Compound 9] | > 80 | ≤ 80 | ≤ 80 | ≤ 80 | – | –
COc1ccc(C(c2ccc(OC)cc2OC)[C@H](C)OC(=O)[C@H](C)n2c(=O)oc3c(OC)ccnc3c2=O)c(OC)c1 [Compound 8] | ≤ 80 | ≤ 80 | > 80 | > 80 | – | –
CCC(CC)[C@@H](Oc1ccccc1Cl)[C@H](C)OC(=O)[C@H](C)n1c(=O)oc2c(OC)ccnc2c1=O [Compound 16] | > 80 | ≤ 80 | ≤ 80 | > 80 | – | –
COc1ccnc2c(=O)n([C@@H](C)C(=O)O[C@@H](C)[C@H](Oc3ccccc3)C(C)(C)C)c(=O)oc12 [Compound 4] | > 80 | > 80 | – | ≤ 80 | – | –
COc1ccnc2c(=O)n([C@@H](C)C(=O)O[C@@H](C)[C@H](Oc3ccccc3)c3ccc(F)cc3Cl)c(=O)oc12 [Compound 15] | > 80 | ≤ 80 | > 80 | > 80 | – | –

From patent US10034477B2, “Pyrido-1,3-oxazine-2,4-dione compounds with fungicidal activity” (Dow AgroSciences LLC, priority 2016, dated 2018)
